In patent US20230051589A1, “COMPOUNDS AND COMPOSITIONS FOR TREATING CONDITIONS ASSOCIATED WITH NLRP ACTIVITY” (Novartis AG, priority 2018, published 2023):
Like-named read-outs stand apart in the source and are kept apart here.

System: IL-1β production in PMA-differentiated THP-1 cells
Experiment: IL-1β production in PMA-differentiated THP-1 cells stimulated with gramicidin (hTHP-1 assay, 2% fetal bovine serum; Procedures 1-3)
Format: cell-based, human
In short: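 PMA-primed THP-1 cells (20 ng/ml PMA, 16-18 h) in RPMI with 2% FBS were pre-incubated with compounds for 1 h, from 100 μM downward in 3-fold steps (0.37% DMSO final), then stimulated with 5 μM gramicidin for 2 h. IL-1β in the supernatant was quantified by HTRF.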

[1] = hTHP-1 assay containing 2% fetal bovine serum, Table B2, class symbols, read-out: IC50
[2] = Table B1, hTHP-1 assay containing 2% fetal bovine serum, gramicidin stimulation, IL-1β readout, read-out: hTHP-1 IC50 (average)
[3] = Homo sapiens, THP-1, Table B3, hTHP-1 assay containing 2% fetal bovine serum, gramicidin stimulation, IL-1β readout, read-out: hTHP-1 IC50
[4] = Homo sapiens, THP-1, hTHP-1 assay containing 2% fetal bovine serum, Table B2, class symbols, read-out: IC50
[5] = Table B3, hTHP-1 assay containing 2% fetal bovine serum, gramicidin stimulation, IL-1β readout, read-out: hTHP-1 IC50

CC(O)(CO)c1cc(F)c(S(N)(=O)=NC(=O)Nc2c3c(c(C#N)c4c2CCC4)CCC3)s1 (single isomer, unassigned) [Example 629, (S,R) or (R,R)-N′-((8-cyano-1,2,3,5,6,7-hexahydro-s-indacen-4-yl)carbamoyl)-5-(1,2-dihydroxypropan-2-yl)-3-fluorothiophene-2-sulfonimidamide]
IC50 [1]: 40 to 200 nM

CC(C)(O)c1csc(S(N)(=O)=NC(=O)Nc2c3c(c(Cl)c4c2CCC4)CCC3)c1 (single isomer, unassigned) [Example 89]
IC50 [2]: 8 to 40 nM

CN(C)Cc1ccc(S(N)(=O)=NC(=O)Nc2c3c(cc4c2CCC4)CCC3)cn1 (single isomer, unassigned) [Example 616, (S) or (R)-6-((dimethylamino)methyl)-N′-((1,2,3,5,6,7-hexahydro-s-indacen-4-yl)carbamoyl) pyridine-3-sulfonimidamide]
IC50 [1]: 5000 to 30000 nM

NS(=O)(=NC(=O)Nc1c2c(cc3c1CC3)CCC2)c1nn(C(F)F)cc1F (stereo not drawn) [compound 734, 1-(Difluoromethyl)-4-fluoro-N′-((2,4,5,6-tetrahydro-1H-cyclobuta[f]inden-3-yl)carbamoyl)-1H-pyrazole-3-sulfonimidamide]
IC50 [3]: 40 to 200 nM

CC(C)(O)c1cncc(S(N)(=O)=NC(=O)Nc2c3c(c(C#N)c4c2CCC4)CCC3)c1 (stereo not drawn) [Example 461, N′-((8-cyano-1,2,3,5,6,7-hexahydro-s-indacen-4-yl)carbamoyl)-5-(2-hydroxypropan-2-yl)pyridine-3-sulfomidamide]
IC50 [4]: 200 to 1000 nM

CN(C)Cc1cc(F)c(S(N)(=O)=NC(=O)Nc2c3c(cc4c2CCC4)CCC3)s1 (single isomer, unassigned) [Example 381, (R) or (S)-5-((dimethyl-amino)methyl)-3-fluoro-N′-((1,2,3,5,6,7-hexa-hydro-s-indacen-4-yl)-carbamoyl)thiophene-2-sulfonimidamide]
IC50 [2]: 8 to 40 nM

NS(=O)(=NC(=O)Nc1c2c(cc3c1CC3)CCC2)c1cc2c(s1)CCN(CC(F)F)C2 (single isomer, unassigned) [Example 873, (S) or (R) -5-(2,2-difluoroethyl)-N′-((2,4,5,6-tetrahydro-1H-cyclobuta[f]inden-3-yl)carbamoyl)-4,5,6,7-tetrahydrothieno[3,2-c]pyridine-2-sulfonimidamide]
IC50 [5]: > 30000 nM

CN(C)Cc1ccc(S(N)(=O)=NC(=O)Nc2c3c(cc4c2CC4)CC3)cc1 (single isomer, unassigned) [Example 583, (S) or (R)-4-((dimethylamino)methyl)-N′-(tricyclo[6.2.0.03,6]deca-1,3(6),7-trien-2-ylcarbamoyl) benzenesulfonimidamide]
IC50 [1]: 5000 to 30000 nM

CC1c2c(csc2S(N)(=O)=NC(=O)Nc2c3c(cc4c2CCC4)CCC3)CN1C (stereo not drawn) [Example 768, N′-((1,2,3,5,6,7-hexahydro-s-indacen-4-yl)carbamoyl)-5,6-dimethyl-5,6-dihydro-4H-thieno[3,4-c]pyrrole-1-sulfonimidamide]
IC50 [3]: 200 to 1000 nM

CNCc1cc(F)c(S(N)(=O)=NC(=O)Nc2c3c(cc4c2CCC4)CCC3)s1 (stereo not drawn) [Compound 412]
IC50 (Homo sapiens, THP-1, Table B1, hTHP-1 assay containing 2% fetal bovine serum, gramicidin stimulation, IL-1β readout, read-out: hTHP-1 IC50 (average)): 40 to 200 nM

CN(C)CC(C)(C)c1ccc(S(N)(=O)=NC(=O)Nc2c3c(cc4c2CCC4)CCC3)cc1 (stereo not drawn) [Compound 902]
IC50 [4]: 1000 to 5000 nM

CC(C)(O)c1ncc(S(N)(=O)=NC(=O)Nc2cc3c(c4c2CCC4=O)CCC3)s1 (single isomer, unassigned) [Example 565, (R) or (S)-2-(2-hydroxypropan-2-yl)-N′-((1-oxo-1,2,3,6,7,8-hexahydro-as-indacen-4-yl)carbamoyl) thiazole-5-sulfonimidamide]
IC50 [4]: 5000 to 30000 nM

CC(C)c1cnc(S(N)(=O)=NC(=O)Nc2c3c(cc4c2CCC4)CCC3)c(F)c1 (stereo not drawn) [Example 765, 3-Fluoro-N'-((1,2,3,5,6,7-hexahydro-s-indacen-4-yl)carbamoyl)-5-isopropylpyridine-2-sulfonimidamide]
IC50 [3]: 1000 to 5000 nM

NS(=O)(=NC(=O)Nc1c2c(cc3c1CCC3)CCC2)c1ccc(C2CCCN2)cc1 (mixture of isomers) [Example 649, (S,R) or (R,R) and (S,S) or (R,S)-N′-((1,2,3,5,6,7-hexahydro-s-indacen-4-yl)carbamoyl)-4-(pyrrolidin-2-yl) benzenesulfonimidamide (mixture of two isomers)]
IC50 [1]: 5000 to 30000 nM

CN[C@H](c1ccc(S(N)(=O)=NC(=O)Nc2c3c(cc4c2CC4)CCC3)s1)C1CC1 (single isomer, unassigned) [Example 869, (R, S) or (S, S)-5-(cyclopropyl(methylamino)methyl)-N′-((2,4,5,6-tetrahydro-1H-cyclobuta[f]inden-3-yl)carbamoyl)thiophene-2-sulfonimidamide]
IC50 [5]: 200 to 1000 nM

CC(C)(O)c1ncc(S(N)(=O)=NC(=O)Nc2c3c(cc4c2C(=O)CC4)CCC3)s1 (single isomer, unassigned) [Example 364, (R) or (S)-2-(2-Hydroxy-propan-2-yl)-N′-((3-oxo-1,2,3,5,6,7-hexahydro-s-indacen-4-yl)carbamoyl)-thiazole-5-sulfonimidamide]
IC50 [2]: 40 to 200 nM

CC(C)(O)c1ncc([S@](N)(=O)=NC(=O)Nc2c3c(cc4c2CC4)CCC3)s1 [Example 224, (R)-2-(2-hydroxypropan-2-yl)-N′-((2,4,5,6-tetrahydro-1H-cyclobuta[f]inden-3-yl)carbamoyl) thiazole-5-sulfonimidamide]
IC50 [2]: 8 to 40 nM

CC(C)(O)c1cc(F)c(S(N)(=O)=NC(=O)Nc2c3c(cc4c2C(=O)CC4)CCC3)s1 (single isomer, unassigned) [Example 539, (R) or (S)-3-fluoro-5-(2-hydroxypropan-2-yl)-N′-((3-oxo-1,2,3,5,6,7-hexahydro-s-indacen-4-yl)carbamoyl) thiophene-2-sulfonimidamide]
IC50 [1]: 40 to 200 nM

CC(C)(O)c1ncc(S(N)(=O)=NC(=O)Nc2c3c(cc4c2OCC4)CCC3)s1 (single isomer, unassigned) [Example 343, (R) or (S)-2-(2-hydroxy-propan-2-yl)-N′-((3,5,6,7-tetrahydro-2H-indeno[5,6-b]furan-8-yl)carbamoyl)-thiazole-5-sulfonimidamide]
IC50 [2]: 40 to 200 nM

CC(OC(F)F)c1ccc(S(N)(=O)=NC(=O)Nc2c3c(cc4c2CCC4)CCC3)cc1 (single isomer, unassigned) [Example 641]
IC50 [1]: 1000 to 5000 nM

NS(=O)(=NC(=O)Nc1c2c(cc3c1CC3)CCC2)c1sc2c(c1F)COCC2 (single isomer, unassigned) [Example 841, (R) or (S)-3-fluoro-N′-((2,4,5,6-tetrahydro-1H-cyclobuta[f]inden-3-yl)carbamoyl)-6,7-dihydro-4H-thieno[3,2-c]pyran-2-sulfonimidamide]
IC50 [5]: 200 to 1000 nM

N-(amino((R)-6-methoxy-6,7- dihydro-5H-pyrazolo[5,1- b][1,3]oxazin-3-yl)(oxo)-9,6- sulfaneylidene)-1,2,3,5,6,7- hexahydro-s-indacene-4-carboxamide [Example 472]
IC50 [1]: 40 to 200 nM

CC(C)(O)c1cc(S(N)(=O)=NC(=O)Nc2c3c(cc4c2CCC4)CCC3)sc1-c1ccccc1 (single isomer, unassigned) [Example 552, (R) or (S)-N′-((1,2,3,5,6,7-hexahydro-s-indacen-4-yl)(2-4-carbamoyl)-hydroxypropan-2-yl)-5-phenylthiophene-2-sulfonimidamide]
IC50 [1]: 40 to 200 nM

CC(C)(O)c1cnc([S@@](N)(=O)=NC(=O)Nc2c3c(cc4c2C(O)CC4)CCC3)s1 (stereo partly drawn) [Example 511, (S)-N′-((3-hydroxy-1,2,3,5,6,7-hexahydro-s-indacen-4-yl)carbamoyl)-5-(2-hydroxypropan-2-yl)thiazole-2-sulfonimidamide]
IC50 (Homo sapiens, THP-1, hTHP-1 assay containing 2% fetal bovine serum, Table B2, given as bound, read-out: IC50): > 30000 nM

C[C@](O)(COCCOCCOCCOCCO)c1ncc(S(N)(=O)=NC(=O)Nc2c3c(cc4c2CCC4)CCC3)s1 (stereo partly drawn) [Example 750, 2-((S)-1,14-dihydroxy-3,6,9,12-tetraoxapentadecan-14-yl)-N′-((1,2,3,5,6,7-hexahydro-s-indacen-4-yl)carbamoyl)thiazole-5-sulfonimidamide]
IC50 [3]: 5000 to 30000 nM

CNC(C)(C)c1ccc(S(N)(=O)=NC(=O)Nc2c3c(cc4c2CCC4)CCC3)cc1 (single isomer, unassigned) [Example 603, (R) or (S)-N′-((1,2,3,5,6,7-hexahydro-s-indacen-4-yl)carbamoyl)-4-(2-(methylamino)propan-2-yl) benzenesulfonimidamide]
IC50 [1]: 5000 to 30000 nM

CN(C)Cc1ccc(S(N)(=O)=NC(=O)Nc2c3c(cc4c2CCC4)CCC3)s1 (stereo not drawn) [Example 735, 5-((Dimethylamino)methyl)-N-((1,2,3,5,6,7-hexahydro-s-indacen-4-yl)carbamoyl)thiophene-2-sulfonimidamide]
IC50 [3]: 1000 to 5000 nM

N[S@](=O)(=NC(=O)Nc1c2c(cc3c1CCC3)CCC2)c1ccc([C@@H]2CCN2)cc1 [Compound 802c]
IC50 [4]: 5000 to 30000 nM

COCc1nc(C(C)(C)O)sc1S(N)(=O)=NC(=O)Nc1c2c(c(C#N)c3c1CCC3)CCC2 (stereo not drawn) [Example 679, N′-((8-cyano-1,2,3,5,6,7-hexahydro-s-indacen-4-yl)carbamoyl)-2-(2-hydroxypropan-2-yl)-4-(methoxymethyl)thiazole-5-sulfonimidamide]
IC50 [4]: 200 to 1000 nM

CC(C)(O)c1cncc(S(N)(=O)=NC(=O)Nc2c3c(c(C#N)c4c2CCC4)CCC3)c1 (single isomer, unassigned) [Example 523, (S) or (R)-N′-((8-cyano-1,2,3,5,6,7-hexahydro-s-indacen-4-yl)carbamoyl)-5-(2-hydroxypropan-2-yl)pyridine-3-sulfonimidamide]
IC50 [1]: 5000 to 30000 nM
